Reference: patent publication US5698538A, “Boronic acid and ester inhibitors of thrombin” (The DuPont Merck Pharmaceutical Company, priority 1996, dated 1997)

Tests used:
Format in all cases: biochemical
human thrombin = target: T1, human thrombin (Homo sapiens, UniProt P00734); assay: Inhibition of human thrombin (chromogenic substrate S2238), inhibitory constant Ki; conditions: 0.2-0.5 nM human thrombin, S2238, pH 7.5, 30 minutes; read-out: Ki values for inhibition of Serine Proteases: Thrombin
T1 construct: purchased Enzyme Research Laboratories, South Bend, Ind
Description: (§1) The effectiveness of compounds of the present invention as inhibitors of blood coagulation proteases was determined using purified human proteases and synthetic substrates following procedures similar to those described in Kettner et al. (1990).
(§2) For these assays, the rate of enzymatic (thrombin, Factor Xa, and Factor VIIa) hydrolysis of chromogenic substrates (S2238 (H-D-Phe-Pip-Arg-pNA), S2222, and S2288, respectively; Kabi Pharmacia, Franklin, Ohio.) was measured both in the absence and presence of compounds of the present invention. […] A decrease in the rate of absorbance change at 405 nm in the presence of inhibitor is indicative of enzyme inhibition. The results of this assay are expressed as inhibitory constant, Ki.
(§3) Thrombin and Xa determinations were made in 0.10M sodium phosphate buffer, pH 7.5, containing 0.20M NaCl, and 0.5% PEG 8000. VIIa determinations were made in 0.05M tris buffer, pH 7.6, containing 0.10M NaCl, 4 mM CaCl2, and 0.1% bovine serum albumin. The Michaelis constant, Km, for substrate hydrolysis was determined at 5° C. using the method of Lineweaver and Burk.
(§4) Values of Ki were determined by allowing 0.2-0.5 nM human thrombin or human factor Xa (Enzyme Research Laboratories, South Bend, Ind.), or 50 nM human factor VIIa (BiosPacific, Emeryville, Calif.) react with the substrate (0.20 mM-1 mM) in the presence of inhibitor. Reactions were allowed to go for 30 minutes and the velocities (rate of absorbance change vs time) were measured in the time frame of 25-30 minutes. The following relationship was used to calculate Ki values. [formula] where: vo is the velocity of the control in the absence of inhibitor;
(§5) vs is the velocity in the presence of inhibitor;
(§6) I is the concentration of inhibitor;
(§7) Ki is the dissociation constant of the enzyme: inhibitor complex;
(§8) S is the concentration of substrate;
(§9) Km is the Michaelis constant.

human factor Xa = target: T2, human factor Xa (Homo sapiens, UniProt P00742); assay: Inhibition of human factor Xa (chromogenic substrate S2222), inhibitory constant Ki; conditions: S2222, pH 7.5, 30 minutes, read-out: Ki values for inhibition of Serine Proteases: Factor Xa
T2 construct: purchased Enzyme Research Laboratories, South Bend, Ind
Description: as §1, §2, §3, §4, §5, §6, §7, §8, §9

human factor VIIa = target: T3, human factor VIIa (Homo sapiens, UniProt P08709); assay: Inhibition of human factor VIIa (chromogenic substrate S2288), inhibitory constant Ki; conditions: 50 nM human factor VIIa, S2288, pH 7.6, 4 mM CaCl2, 30 minutes; read-out: Ki values for inhibition of Serine Proteases: Factor VIIa
T3 construct: Factor VIIa in the extrinsic pathway; purchased BiosPacific, Emeryville, Calif
T3 sequence (P08709 213-466 limits assumed): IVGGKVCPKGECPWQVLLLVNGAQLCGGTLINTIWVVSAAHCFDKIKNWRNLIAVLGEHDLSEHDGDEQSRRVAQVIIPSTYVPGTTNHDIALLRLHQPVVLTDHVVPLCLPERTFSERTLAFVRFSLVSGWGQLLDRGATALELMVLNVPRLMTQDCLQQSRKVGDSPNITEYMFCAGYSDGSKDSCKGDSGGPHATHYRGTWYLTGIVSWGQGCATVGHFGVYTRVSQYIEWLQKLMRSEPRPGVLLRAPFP
T3 sequence (P08709 61-212 partner limits assumed): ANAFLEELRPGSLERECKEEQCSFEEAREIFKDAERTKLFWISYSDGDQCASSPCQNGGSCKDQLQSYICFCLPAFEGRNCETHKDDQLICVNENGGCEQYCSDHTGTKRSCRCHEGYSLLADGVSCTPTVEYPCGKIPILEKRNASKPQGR
Description: as §1, §2, §3, §4, §5, §6, §7, §8, §9

T2 sequence (P00742 235-488 limits assumed): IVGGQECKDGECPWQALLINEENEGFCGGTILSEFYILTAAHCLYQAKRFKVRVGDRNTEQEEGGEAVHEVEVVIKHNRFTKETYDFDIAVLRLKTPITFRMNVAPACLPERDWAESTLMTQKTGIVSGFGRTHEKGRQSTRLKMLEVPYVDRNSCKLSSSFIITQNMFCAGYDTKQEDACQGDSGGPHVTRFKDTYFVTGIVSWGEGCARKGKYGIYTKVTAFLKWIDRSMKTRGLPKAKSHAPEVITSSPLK
T2 sequence (P00742 41-179 partner limits assumed): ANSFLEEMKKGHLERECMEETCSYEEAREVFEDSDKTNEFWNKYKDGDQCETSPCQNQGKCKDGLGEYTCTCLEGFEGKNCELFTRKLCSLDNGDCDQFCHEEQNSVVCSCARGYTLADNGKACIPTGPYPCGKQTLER

SMILES: CC1(C)C2CC3OB([C@H](CCCNC(=N)N)NC(=O)Cn4nc(Cc5ccccc5)nc4-c4cccc([N+](=O)[O-])c4)OC3(C)C1C2 (single isomer, unassigned) [Example 2491]
- Ki (human thrombin): < 500 nM
- Ki (human factor Xa): < 500 nM
- Ki (human factor VIIa): 0.5 to 50 µM

SMILES: COC(=O)Cc1nc(Cc2ccccc2)n(CC(=O)N[C@@H](CCCCN)B2O[C@@H]3C[C@@H]4C[C@@H](C4(C)C)[C@]3(C)O2)n1 [Example 917]
- Ki (human thrombin): < 500 nM
- Ki (human factor Xa): 500 to 50000 nM
- Ki (human factor VIIa): 0.5 to 50 µM

SMILES: Cc1nc(Cc2ccccc2)nn1CC(=O)N[C@@H](CCCCN)B1OC2CC3CC(C3(C)C)C2(C)O1 (single isomer, unassigned) [Example 2412]
- Ki (human thrombin): < 500 nM
- Ki (human factor Xa): 500 to 50000 nM
- Ki (human factor VIIa): 0.5 to 50 µM

SMILES: CCCc1nc(Cc2ccccc2)n(CC(=O)N[C@@H](CCCCN)B2O[C@@H]3C[C@@H]4C[C@@H](C4(C)C)[C@]3(C)O2)n1 [Example 890]
- Ki (human thrombin): < 500 nM
- Ki (human factor Xa): 500 to 50000 nM
- Ki (human factor VIIa): 0.5 to 50 µM

SMILES: CC1(C)[C@@H]2C[C@H]3OB([C@H](CCCCN)NC(=O)c4ccc(-c5ccccc5)nc4)O[C@@]3(C)[C@H]1C2 [Example 468]
- Ki (human thrombin): < 50000 nM
- Ki (human factor Xa): 500 to 50000 nM
- Ki (human factor VIIa): 0.5 to 50 µM

SMILES: COC(=O)NS(=O)(=O)c1ccccc1-c1ccc(C(=O)N[C@@H](CCCNC(=N)N)B2O[C@@H]3C[C@@H]4C[C@@H](C4(C)C)[C@]3(C)O2)c(C)c1 [Example 231]
- Ki (human thrombin): < 500 nM
- Ki (human factor Xa): < 500 nM
- Ki (human factor VIIa): 0.5 to 50 µM

SMILES: CC1(C)C2CC3OB([C@H](CCCCN)NC(=O)Cn4nc(Cc5ccccc5)nc4CC(=O)O)OC3(C)C1C2 (single isomer, unassigned) [Example 2430]
- Ki (human thrombin): < 50000 nM
- Ki (human factor Xa): 500 to 50000 nM
- Ki (human factor VIIa): > 500 µM
